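Step 1: Grow cells in 96-well plates. Step 2: Expose to compound for 48 hours at 5 concentrations. Step 3: Interpolate endpoints linearly; if unreached, use highest concentration. At the GI50, growth is halved. TGI: concentration producing complete growth inhibition.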
Key:
Assay in all cases: inhibition of tumour cell growth, NCI panel, 48 h
SK-MEL-5 melanoma = tested on: SK-MEL-5 melanoma
NCI-H23 lung = tested on: NCI-H23 lung
SK-MEL-2 melanoma = tested on: SK-MEL-2 melanoma
OVCAR-3 ovarian = tested on: OVCAR-3 ovarian
KM12 colon = tested on: KM12 colon
SNB-75 CNS = tested on: SNB-75 CNS
MDA-MB-231 breast = tested on: MDA-MB-231 breast
TK-10 renal = tested on: TK-10 renal
BT-549 breast = tested on: BT-549 breast
NCI-H460 lung = tested on: NCI-H460 lung

| Structure (SMILES) | GI50 (SK-MEL-5 melanoma) [µM] | TGI (SK-MEL-5 melanoma) [µM] | GI50 (NCI-H23 lung) [µM] | TGI (NCI-H23 lung) [µM] | GI50 (SK-MEL-2 melanoma) [µM] | TGI (SK-MEL-2 melanoma) [µM] | GI50 (OVCAR-3 ovarian) [µM] | TGI (OVCAR-3 ovarian) [µM] | GI50 (KM12 colon) [µM] | TGI (KM12 colon) [µM] | GI50 (SNB-75 CNS) [µM] | TGI (SNB-75 CNS) [µM] | GI50 (MDA-MB-231 breast) [µM] | TGI (MDA-MB-231 breast) [µM] | GI50 (TK-10 renal) [µM] | TGI (TK-10 renal) [µM] | GI50 (BT-549 breast) [µM] | TGI (BT-549 breast) [µM] | GI50 (NCI-H460 lung) [µM] | TGI (NCI-H460 lung) [µM] |
| --- | --- | --- | --- | --- | --- | --- | --- | --- | --- | --- | --- | --- | --- | --- | --- | --- | --- | --- | --- | --- |
| O=C(CSC1CCc2ccccc21)N/N=C/c1ccccc1O (stereo unspecified) | 1.85 | 5.17 | 9.83 | > 100 | 5.26 | 24.6 | 4.67 | 48.9 | 3.73 | 23.7 | 5.52 | > 100 | 3.98 | 39.6 | 6.1 | 73.8 | 5.46 | 34.2 | 3.4 | 14.6 |
| N=C(N)c1ccc2nc(-c3cc(CC(=O)N[C@@H](CC(=O)O)C(=O)O)cc(-c4cc(S(N)(=O)=O)ccc4O)c3O)[nH]c2c1 | > 100 | > 100 | > 100 | > 100 | > 100 | > 100 | > 100 | > 100 | > 100 | > 100 | > 100 | > 100 | > 100 | > 100 | > 100 | > 100 | > 100 | > 100 | > 100 | > 100 |
| C=C1C(=O)O[C@H]2[C@H]1CC/C(COC(=O)/C=C\C(=O)NCc1ccc(Cn3c(=O)sn(CCCC)c3=O)cc1)=C\CC[C@@]1(C)O[C@@H]21 | 1.4 | 2.71 | 1.4 | 2.89 | 1.67 | 3.31 | 0.229 | 0.589 | 1.67 | 3.8 | 0.697 | 2.19 | 0.992 | 2.34 | 0.61 | 1.78 | 0.909 | 2.23 | 1.27 | 2.73 |
| CCN1C(=O)N(CC)C2C1NN=c1s/c(=C3\C(=O)N(CC(C)(C)C)c4ccccc43)c(=O)n12 (stereo unspecified) | 2.11 | 5.21 | 3.39 | 14.5 | 11.3 | 33.1 | 3.17 | 12.1 | 3.67 | 18.4 | 2.77 | 24.2 | 0.151 | 2.29 | 15.3 | 48.5 | 2.62 | 9.65 | 3.39 | 13.4 |
| CSc1ccc2c(c1)C(=O)c1c-2n(CCCBr)c(=O)c2cc([N+](=O)[O-])ccc12 | 3 | 25.8 | 8.03 | > 100 | > 100 | > 100 | > 100 | > 100 | 46.1 | > 100 | 7.9 | > 100 | > 100 | > 100 | > 100 | > 100 | 80.7 | > 100 | 0.547 | > 100 |
| O=C1NC(=O)/C(=C\c2ccccc2)C2=C1CCCC2 | 1.81 | 3.52 | 2.63 | 8.33 | 7.72 | 22.9 | 2.71 | 8.17 | 9.21 | 22 | 11.9 | 24.7 | 13.2 | 26.4 | 12 | 25.3 | 4.13 | 16.4 | 16.3 | 36 |
| O=C(O)CC(NC(=O)CP(=O)(O)O)C(=O)O (stereo unspecified) |  | > 10000 |  | > 10000 |  | > 10000 |  | > 10000 | 95.5 | > 10000 |  | > 10000 |  | > 10000 |  | > 10000 |  | > 10000 | 79.5 | > 8670 |
| NC(=O)c1cc(S(=O)(=O)Nc2nnc(-c3ccccc3)c(-c3ccccc3)n2)c(SCc2ccccc2)cc1Cl | > 79.6 | > 100 | > 72.3 | > 100 | > 43.1 | > 60.7 | > 100 | > 100 | > 62.6 | > 100 |  | > 61.5 | > 85.4 | > 100 | > 100 | > 100 | > 53.1 | > 89.7 | > 46.2 | > 83.1 |
| N#Cc1c(N/N=C/c2ccc(Cl)cc2Cl)nc(N)nc1N1CCCC1 | 21.5 | > 100 | 38.5 | > 100 | 72.3 | > 100 | 25.5 | > 100 | > 100 | > 100 | 6.26 | 49.8 | 24.8 | > 100 | 54.3 | > 100 | > 100 | > 100 | 63.9 | > 100 |
| COc1ccc(-c2coc3c4c(ccc3c2=O)OCO4)cc1OC |  | > 100 |  | > 100 |  | > 100 |  | > 100 |  | > 100 |  | > 100 |  | > 100 |  | > 100 |  | > 100 |  | > 100 |
| Cc1nc2sc3c(c2c(=O)[nH]1)CCCC3 |  | > 100 |  | > 100 |  | > 100 |  | > 100 |  | > 100 |  | > 100 |  | > 100 |  | > 100 |  | > 100 |  | 86.1 |
| Cn1cc(C2=C(c3cccc(Br)c3)C(=O)NC2=O)c2ccccc21 | 6.23 | 22.3 | 12.5 | > 25 | 11.6 | > 21.6 | 9.51 | > 25 | 8.43 | > 25 | 1.18 | > 25 | 18.7 | > 25 | > 18.6 | > 25 | 15.1 | > 25 | 16.9 | > 25 |
| C#COc1cccc(Nc2c(C#N)cnc3ncc(NC(=O)CCl)cc23)c1 | > 62.5 | > 62.5 | > 62.5 | > 62.5 | > 62.5 | > 62.5 | 25.3 | > 62.5 | 56.7 | > 62.5 | 45.4 | > 62.5 | 32 | > 62.5 | > 62.5 | > 62.5 | > 62.5 | > 62.5 | 31.9 | > 62.5 |

Source: PubChem BioAssay (NCI)
